Data as given in US20060257481A1, “Sustained release formulation and dosing schedule of leukotriene synthesis inhibitor for human therapy” (deCODE Genetics ehf., priority 2005, published 2006).
Values joined by “and” are separate entries in the source; they are usually repeats but may differ in a detail not shown here. Equal values may be shown once. Read-outs that look alike come from different tables or passages of the source.

Experiments:
MCP-1 = test: Study DG-031-201: MCP-1; format: in vivo, human; conditions: difference visit 2 to visit 5; 500 and 750 mg/day vs placebo cohort
Description: Patients who met the study eligebility criteria were enrolled and randomized into 3 different dose-level groups: (1) 64 patients on 250 mg/day therapy with DG-031 (250 mg q.d.), vs placebo; (2) 64 patients on 500 mg/day therapy with DG-031 (250 mg b.i.d.) vs placebo; and (3) 63 patients on 750 mg/day therapy with DG-031 (250 mg t.i.d.) vs placebo. […] All patients received 3 tablets per day. Treatment periods, 4 weeks in duration each, were separated by a 2-week washout period. The placebo tablets were identical in shape, color, form and taste to the active tablets except that they contained no active drug ingredients. Treatment with DG-031 or placebo was in addition to the subject's standard care, including all medications and treatment plan as prescribed by the subject's cardiologist prior to enrolment. A total of 191 subjects were enrolled, with 172 completing all 8 visits or 8 patients short of the target of 180 patients.
All data were analyzed according to a pre-established statistical analysis plan (SAP) and by intention-to-treat (ITT). Each arm of the study, as well as pooled sets (combining dose levels), was considered for the primary analysis. […] The difference between DG-031 and placebo treatment was the primary outcome, assessed separately for each of the biomarkers. […]

[1] = system: LTB4 production (ex vivo); test: Study DG-031-203 open label dose ranging: capacity for LTB4 production ex vivo; format: in vivo, human
Description: The study also collected information on the dose-related effect of DG-031 on capacity for LTB4 production (ex vivo), plasma MPO, and serum-CRP. […] The pattern observed supported a concentration dependent pharmacologic effect of DG-031 on capacity for LTB4 production measured ex vivo. The effects on LTB4 production amounted to a 30% (p=0.016) and 25% (p=0.094) reduction with the 375 mg BID and 250 mg TID doses, respectively.

[2] = system: LTB4 production in human whole blood; test: In vitro LTB4 production in human whole blood after ionomycin stimulation; format: cell-based
Description: (§1) Neutrophils and other cells in human whole blood respond in vitro to activation by a calcium ionophore (e.g., ionomycin), with an increase in LTB4 production and with coupled release of MPO stimulated in part by LTB4 production in the assay. The effect of DG-031 on the capacity for production of LTB4 in vitro after ionomycin stimulation was evaluated at concentrations ranging from 0.1 μM up to 240 μM.

[3] = system: MPO release by neutrophils and other cells in human whole blood; test: In vitro MPO release in human whole blood after ionomycin stimulation; format: cell-based
Description: as §1

[4] = Effect of a high fat meal on DG-031 pharmacokinetics; format: in vivo, human; conditions: administration with a high fat meal
Text: In the context of treatment of a single individual, a steady state concentration may be expected to fluctuate from day-to-day with variations in the individual's diet, level activity, state of health, co-administration of other medications, and the like. DG-031 is preferably administered with food to improve adsorption. […] In this context, the steady state concentration for an individual refers to an average concentration taken at multiple time points, to adjust for such fluctuation.

[5] = cited from earlier work; for Safety and tolerability: asthma patients

In the case of `O=C(O)[C@@H](c1ccc(OCc2ccc3ccccc3n2)cc1)C1CCCC1` [DG-031, (R)-(+)-alpha-cyclopentyl-4-(2-quinolinylmethoxy)-Benzeneacetic acid], the “Carry-over effect, MCP-1” value (MCP-1) is reported as 0.07, the LTB4 production ([1]; 250 mg TID, St. 203) is reported as −25% (St. 203) and the “Reduction of LTB4 production ex vivo” value ([1]; 250 mg TID, p=0.094) is reported as 25%. The LTB4 production ([1]; 375 mg BID, Study 203, 2 hours, p = 0.016) was −30%, the “Reduction of LTB4 production ex vivo” value ([1]; 375 mg BID, p=0.016) was 30% and the LTB4 production ([1]; 375 mg QD, Study 203, 2 hours, NS) was −16%. For the same compound, the “Expected reduction of capacity for LTB4 production at peak concentration” value ([2]; 250 mg TID peak, assuming ex vivo parallels in vitro response) was “about 65%”, the “Expected reduction of capacity for LTB4 production at Cmin” value ([2]; 250 mg TID, concentrations above 2-3 μg/ml, assuming ex vivo parallels in vitro response) was no less than 30% and the IC50 ([2]; human whole blood, ionomycin stimulation, read-out: in vitro IC50, capacity for LTB4 production) was ~3 µM and ~1.1 µg/mL. The “Concentration at which MPO release is maximally inhibited in vitro” value [3] was ~2 μg/ml and about 6 μM, the “Increase in AUC” value [4] was 30% and the “Increase in Cmax” value [4] was 150%. The Tmax [4] was “no effect”, the half-life [4] was “shorter half-life” and the Tolerability ([5]; 750 mg/day, previous phase I-II human studies in asthma) was “well tolerated”. The Safety and tolerability ([5]; total daily dose 500 mg, greater than 45-365 days) was “safe and well tolerated”, the Safety and tolerability ([5]; total daily dose 250, 500, 750 and 1000 mg, 14 days) was “safe and well tolerated” and the Safety and tolerability ([5]; total daily doses 100, 200, 250, 500 and 1000 mg, 14-42 days) was “safe and well tolerated”.
